{"source": "patent US11655216B2", "about": "(priority 2016, dated 2023)", "key": {"[1]": {"biological_target": "T1, glutathione-S-transferase (GST) tagged LXRalpha LBD (ligand binding domain) (Homo sapiens, UniProt Q13133)", "T1 construct": "purchased Invitrogen pv4655", "T1 sequence (Q13133 209-447 limits assumed)": "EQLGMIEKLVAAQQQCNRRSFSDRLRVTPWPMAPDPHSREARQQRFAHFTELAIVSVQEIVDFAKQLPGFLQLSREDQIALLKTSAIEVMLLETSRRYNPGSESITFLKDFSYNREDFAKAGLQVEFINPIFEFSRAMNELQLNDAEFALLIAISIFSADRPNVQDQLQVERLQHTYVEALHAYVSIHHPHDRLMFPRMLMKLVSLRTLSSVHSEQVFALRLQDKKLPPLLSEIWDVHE", "assay": "biochemical", "summary_of_the_method": "(§1)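 Test ligands were combined with the receptor LBD, after which terbium-labelled anti-GST antibody and a fluorescein-tagged coactivator peptide were introduced together. Plates sat at room temperature, then time-resolved FRET was measured.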"}, "[2]": {"biological_target": "T2, glutathione-S-transferase (GST) tagged LXRbeta LBD (ligand binding domain) (Homo sapiens, UniProt P55055)", "T2 construct": "purchased Invitrogen pv4658", "T2 sequence (P55055 222-460 limits assumed)": "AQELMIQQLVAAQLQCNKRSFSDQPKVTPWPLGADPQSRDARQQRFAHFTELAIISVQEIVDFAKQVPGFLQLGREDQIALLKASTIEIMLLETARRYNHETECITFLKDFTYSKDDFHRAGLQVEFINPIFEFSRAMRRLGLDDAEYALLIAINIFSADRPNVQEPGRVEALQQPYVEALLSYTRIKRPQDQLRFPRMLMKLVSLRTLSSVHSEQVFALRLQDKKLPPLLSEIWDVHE", "assay": "LanthaScreen TR-FRET Liver X Receptor Coactivator Assay, LXR beta", "type": "biochemical", "summary_of_the_method": "as §1"}}, "data": [{"smiles": "CN(C)C(=O)c1ccc(OCC(F)CCC2CCN(C(=O)C(O)(c3ccccc3)C(F)(F)F)CC2)cc1Cl", "note": "(single isomer, unassigned) [Example 20-1, 2-chloro-4-(2-fluoro-4-(1-((R or S)-3,3,3-trifluoro-2-hydroxy-2-phenylpropanoyl)piperidin-4-yl)butoxy)-N,N-dimethylbenzamide]", "values": [{"measurement": "Emax", "setting": "[1]; efficacy (% Emax) in relation to reference dual agonist T0901317, read-out: LXR alpha actiivty at max dose", "value": 26, "unit": "%"}, {"measurement": "EC50", "setting": "[1]; potency (Inflection Point), compound-induced co-activator recruitment, TR-FRET, read-out: LXR alpha IP", "value": 1430, "unit": "nM"}, {"measurement": "EC50", "setting": "[2]; LXR beta IP, potency (Inflection Point), compound-induced co-activator recruitment, TR-FRET", "value": 80, "unit": "nM"}, {"measurement": "Emax", "setting": "[2]; read-out: LXR beta actiivty at max dose, efficacy (% Emax) in relation to reference dual agonist T0901317", "value": 72, "unit": "%"}]}]}
